From PMC12196251, “Synthesis of New DltA Inhibitors and Their Application as Adjuvant Antibiotics to Re-Sensitize Methicillin-Resistant Staphylococcus aureus” (Molecules, 2025)
Values joined by “and” are separate entries in the source; they are usually repeats but may differ in a detail not shown here. Equal entries are not always repeated. Structures can show the parent of a compound that is named as a salt. Where two headings read alike, the source gives them in different places.

Experiments:
MRSA clinical isolates [1] = assay: MIC of imipenem against MRSA in absence or presence of DltA inhibitor; assay type: cell-based, S. aureus; settings: in presence of 1 mM of the DltA inhibitor; for MIC: Staphylococcus aureus, MRSA
Procedure: (§1) All these compounds were also tested […] against MRSA clinical isolates. […] The minimum inhibitory concentrations (MICs) of imipenem (IPM) were next determined in the absence or presence of 1 mM of the different DltA inhibitors to evaluate their potential to re-sensitize MRSA to this β-lactam (Table 2). […] To clarify this hypothesis, quantification of D-alanyl ester of the MRSA cell wall was performed as previously described in the presence of inhibitors (Table 2). […] These new series represent a promising structure entry not reported yet for the inhibition of DltA and the re-sensitization of bacteria toward known antibiotics.
Colonies from BHI agar plates were suspended in saline solution (0.9% NaCl) and adjusted to an OD600 of 0.5. For growth kinetics determination, 96-well microplates (Starlab, Orsay, France) containing 200 μL of fresh BHI medium were inoculated with bacterial suspensions to an OD600 of 0.02 with a wide range of DltA inhibitors (from 0 to 2 mM). Plates were incubated at 37 °C with shaking (orbital amplitude of 3 mm) in a microplate reader (InfiniteM Nano, Tecan, Seoul, Republic of Korean). OD600nm was measured every 10 min for 24 h. Determination of MIC/MBC of antibiotics and bacterial survival assays were performed as previously described using BHI medium. The DltA inhibitor was diluted in pure water and added to the growth medium to a final concentration of 0, 0.1, 0.25, 0.5, 0.75, or 1 mM.

[2] = molecular target: T1, recombinant DltA from E. faecalis (Enterococcus faecalis, UniProt Q830N0); parameters: method as in doi:10.1002/ejoc.202300258; settings: previous reported work; cited from earlier work
T1 construct: made in house; host or cells: E. coli
T1 sequence (Q830N0 1-506): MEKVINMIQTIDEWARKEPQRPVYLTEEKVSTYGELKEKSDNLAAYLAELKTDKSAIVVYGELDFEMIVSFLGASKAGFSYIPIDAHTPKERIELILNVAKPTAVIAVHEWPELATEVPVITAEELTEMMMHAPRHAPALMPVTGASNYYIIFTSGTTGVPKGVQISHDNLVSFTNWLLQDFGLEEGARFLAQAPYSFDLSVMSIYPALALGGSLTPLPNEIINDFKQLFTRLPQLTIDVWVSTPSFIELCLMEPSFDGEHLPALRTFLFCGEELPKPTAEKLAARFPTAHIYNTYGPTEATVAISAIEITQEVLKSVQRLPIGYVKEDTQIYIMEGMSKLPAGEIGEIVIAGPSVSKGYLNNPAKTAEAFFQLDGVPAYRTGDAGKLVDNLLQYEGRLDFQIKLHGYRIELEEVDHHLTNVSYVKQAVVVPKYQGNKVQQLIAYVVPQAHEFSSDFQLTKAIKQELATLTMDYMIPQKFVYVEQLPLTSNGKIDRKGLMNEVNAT

MRSA clinical isolates [3] = tested on: MRSA clinical isolates; parameters: method as in PMID 31339997, PMID 34450626, PMID 40116514; settings: S. aureus (MRSA); in presence of inhibitor 1; previously reported; cited from earlier work
[4] = tested on: D-alanyl ester of the MRSA cell wall; assay: Quantification of D-alanyl ester in the bacterial cell wall; assay type: cell-based, S. aureus; settings: inhibitor at 1 mM, value (spread)
Procedure: as §1
Ester-linked D-alanines were quantified as described previously, with the following modifications. Cultures were grown in 5 mL of BHI supplemented with DltA inhibitor to a final concentration of 0.05, 0.1, 0.25, 0.5, 0.75, or 1 mM for 16 h at 37 °C under shaking (120 rpm). Briefly, the quantification is based on the oxidation of a chromogen by H2O2 generated when free D-alanines are oxidized by a D-amino acid oxidase. Three independent experiments with duplicate samples were performed.

DltA = molecular target: DltA; parameters: method as in PMID 15955059; settings: DltA inhibitor; cited from earlier work
[5] = molecular target: T2, recombinant DltA from S. epidermidis (Staphylococcus epidermidis, UniProt Q5HQN0); assay: DltA enzyme inhibition, PPi release coupled-enzyme assay; assay type: biochemical
T2 construct: made in house; host or cells: E. coli
T2 sequence (Q5HQN0 1-485): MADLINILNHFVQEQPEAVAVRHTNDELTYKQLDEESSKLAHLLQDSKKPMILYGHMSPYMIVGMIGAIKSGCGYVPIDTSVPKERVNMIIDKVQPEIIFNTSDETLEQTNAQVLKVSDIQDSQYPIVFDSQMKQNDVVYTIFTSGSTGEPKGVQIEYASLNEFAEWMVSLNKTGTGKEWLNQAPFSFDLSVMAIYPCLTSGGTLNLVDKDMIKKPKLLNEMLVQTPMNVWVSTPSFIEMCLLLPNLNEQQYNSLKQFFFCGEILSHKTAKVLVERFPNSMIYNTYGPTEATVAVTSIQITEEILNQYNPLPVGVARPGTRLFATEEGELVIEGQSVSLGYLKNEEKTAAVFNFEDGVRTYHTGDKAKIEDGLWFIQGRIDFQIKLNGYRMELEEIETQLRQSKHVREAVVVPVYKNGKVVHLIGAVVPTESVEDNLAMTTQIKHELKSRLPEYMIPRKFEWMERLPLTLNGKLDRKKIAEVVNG
Procedure: (§2) All new compounds were then evaluated in vitro for enzyme inhibition against recombinant DltA from E. faecalis or S. epidermis. Half-maximal inhibitory concentrations (IC50) were then determined by measuring the amount of PPi released at different inhibitor concentrations (Table 2). […] We noticed the DltA enzyme tolerated the presence of various modifications on the 2′-position, but the activity was inversely related to the size of the introduced group. […] Despite a good predicted binding affinity (−8.7 Kcal/mol), we hypothesize that the lower activity could be explained by the fact that the squaramide nitrogen atom might not be under its anionic form, as is the case with sulfamate 1.
(§3) The DltA-catalyzed ATP-hydrolysis reaction was monitored in vitro via PPi release (DltA +D-alanine +ATP → DltA-DAla-AMP +PPi) using a coupled-enzyme assay. The purified DltA was pretreated with DltC purified from E. coli to clear D-Ala-AMP already present in the enzyme preparation after expression in E. coli. Holo-DltC is the natural protein partner of DltA, and DltC purified from E. coli BL21 (DE3) contained 51% of this active form of DltC as determined by HPLC analysis. DltA was pretreated with DltC (ratio 1:1.2), incubated for 30 min at 37 °C and 30 min at 4 °C. Three successive washes were realized on Amicon Ultra-2 Centrifugal Filter Unit—Ultracel 30 membrane 30 kDa MWCO (Merck, Darmstadt, Germany) with elution buffer EB at 4 °C. The components of the coupled enzyme assay included 1.5 μM pre-treated DltA, 20 μM of ATP, and 14 μM of D-alanine. The half-maximal inhibitory concentration (IC50) of potential DltA inhibitors was determined by the addition of different concentrations of the synthesized molecules. PPi release was determined using the PiPer—Pyrophosphate assay kit (Invitrogen, Waltham, MA, USA) according to the recommendation of the supplier. Reactions were carried out in 96-well Chimney Style, non-binding Microplates with μClear Film Bottom (Greiner Bio-one, Frickenhausen, Germany). Plates were incubated at 37 °C for 5 h and read in a FlexStation 3 Multi-Mode plate reader (Molecular Devices, Silicon Valley, CA, USA), with λ excitation of 530 nm and λ emission of 590 nm. Experiments were conducted in sextuplicate, and the IC50 was determined by linear regression of the curve.

[6] = molecular target: T1, recombinant DltA from E. faecalis; assay: as above; assay type: biochemical
Procedure: as §2, §3

[7] = read-out: MIC of IPM, S. aureus (MRSA)
[8] = S. aureus (MRSA), read-out: MIC of IPM

| Compound | MIC (MRSA clinical isolates [1]; [7]) [µg/mL] | IC50 [2] [nM] | MIC of IPM (MRSA clinical isolates [3]) [µg/mL] | Reduction in D-Ala Ester Residues [4] | Ki (DltA) [nM] | IC50 [5] [nM] | IC50 [6] [nM] | MIC of IPM (MRSA clinical isolates [1]; S. aureus (MRSA)) [µg/mL] | MIC (MRSA clinical isolates [1]; [8]) [µg/mL] |
| --- | --- | --- | --- | --- | --- | --- | --- | --- | --- |
| C[C@@H](N)C(=O)c1cn(C[C@H]2O[C@@H](n3cnc4c(N)ncnc43)[C@H](O)[C@@H]2O)nn1 [Compound 40] | 8 | 4500 | – | – | – | – | – | – | – |
| C[C@@H](N)C(=O)NS(=O)(=O)OC[C@H]1O[C@@H](n2cnc3c(N)ncnc32)[C@H](O)[C@@H]1O [Compound 1, reference compound] | – | – | 0.25 | 86.7% and 86.7 (10.5) % | 200 | 2400 | 2300 | – | – |
| C[C@@H](N)C(=O)c1cn(C[C@H]2O[C@@H](n3cnc4c(N)ncnc43)[C@H](F)[C@@H]2O)nn1 [Compound 50, (R)-2-amino-1-(1-(((2R,3R,4R,5R)-5-(6-amino-9H-purin-9-yl)-4-fluoro-3-hydroxytetrahydrofuran-2-yl)methyl)-1H-1,2,3-triazol-4-yl)propan-1-one salt] | 16 to 64 | – | – | 8.6 (1.1) % | – | – | 14700 | 32 | – |
| CC(N)C(=O)NS(=O)(=O)NCC1OC(n2cnc3c(N)ncnc32)C(O)C1O [Compound 30, (R)-2-amino-N-(N-(((2R,3S,4R,5R)-5-(6-amino-9H-purin-9-yl)-3,4-dihydroxytetrahydrofuran-2-yl)methyl)sulfamoyl)propenamide salt] | – | – | – | 80.9% and 80.9 (18.4) % | – | 2000 | 1800 | – | 1 |
| CC(N)C(=O)NS(=O)(=O)NCC1OC(n2cnc3c(N)ncnc32)C(F)C1O [Compound 31, (R)-2-amino-N-(N-(((2R,3R,4R,5R)-5-(6-amino-9H-purin-9-yl)-4-fluoro-3-hydroxytetrahydrofuran-2-yl)methyl)sulfamoyl)propenamide salt] | – | – | – | 0% | – | – | 3200 | – | 32 |
| C[C@@H](N)C(=O)c1cn(C/C(CO)=C(\F)Cn2cnc3c(N)ncnc32)nn1 [Compound 39] | 16 | 7400 | – | 0% | – | – | – | – | – |
